Measured values as given in ChEMBL document CHEMBL3596159, “Beyond substrate analogues: new inhibitor chemotypes for glycosyltransferases” (Medchemcomm, 2014).
In brackets after ≈: the same amount, converted by molar mass.

Assays:
[1] = biological target: T1, Beta-galactoside alpha-2,6-sialyltransferase 1 (Homo sapiens, UniProt P15907); assay: Inhibition of human ST6Gal1
T1 sequence (P15907 whole entry): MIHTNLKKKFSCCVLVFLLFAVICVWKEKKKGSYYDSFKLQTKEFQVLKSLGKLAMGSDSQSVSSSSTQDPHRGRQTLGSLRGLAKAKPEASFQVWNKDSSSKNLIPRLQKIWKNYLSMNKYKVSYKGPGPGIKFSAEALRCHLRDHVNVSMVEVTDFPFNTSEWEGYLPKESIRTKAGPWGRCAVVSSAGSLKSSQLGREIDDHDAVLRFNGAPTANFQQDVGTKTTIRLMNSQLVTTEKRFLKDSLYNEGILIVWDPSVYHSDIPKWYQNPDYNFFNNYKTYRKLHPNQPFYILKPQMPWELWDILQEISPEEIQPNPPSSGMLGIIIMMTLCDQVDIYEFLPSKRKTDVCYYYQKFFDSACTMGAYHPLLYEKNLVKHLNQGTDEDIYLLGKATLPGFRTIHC

[2] = biological target: Beta-galactoside alpha-2,6-sialyltransferase 1 (Rattus norvegicus, UniProt P13721); assay: Inhibition of rat ST6Gal1
[3] = biological target: Alpha-(1,6)-fucosyltransferase (Homo sapiens, UniProt Q9BYC5); assay: Inhibition of FucT-8 in human blood platelets
[4] = Inhibition of MGDG (unknown origin)
[5] = Inhibition of short OGT (unknown origin); design: species or system Homo sapiens
[6] = biological target: T2, CMP-N-acetylneuraminate-beta-galactosamide-alpha-2,3-sialyltransferase 1 (Homo sapiens, UniProt Q11201); assay: Inhibition of ST3Gal 1 (unknown origin)
T2 sequence (Q11201 whole entry): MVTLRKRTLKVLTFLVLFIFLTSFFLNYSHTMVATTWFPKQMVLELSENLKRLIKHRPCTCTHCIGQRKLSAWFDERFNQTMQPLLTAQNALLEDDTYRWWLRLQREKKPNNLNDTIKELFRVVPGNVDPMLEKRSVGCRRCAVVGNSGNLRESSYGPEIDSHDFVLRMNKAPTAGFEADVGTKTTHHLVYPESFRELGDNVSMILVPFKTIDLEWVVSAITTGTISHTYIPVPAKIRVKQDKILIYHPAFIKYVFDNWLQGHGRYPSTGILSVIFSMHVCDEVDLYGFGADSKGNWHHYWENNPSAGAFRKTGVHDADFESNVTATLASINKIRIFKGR

[7] = biological target: T3, 4-galactosyl-N-acetylglucosaminide 3-alpha-L-fucosyltransferase FUT5 (Homo sapiens, UniProt Q11128); assay: Inhibition of FucT-5 (unknown origin)
T3 sequence (Q11128 whole entry): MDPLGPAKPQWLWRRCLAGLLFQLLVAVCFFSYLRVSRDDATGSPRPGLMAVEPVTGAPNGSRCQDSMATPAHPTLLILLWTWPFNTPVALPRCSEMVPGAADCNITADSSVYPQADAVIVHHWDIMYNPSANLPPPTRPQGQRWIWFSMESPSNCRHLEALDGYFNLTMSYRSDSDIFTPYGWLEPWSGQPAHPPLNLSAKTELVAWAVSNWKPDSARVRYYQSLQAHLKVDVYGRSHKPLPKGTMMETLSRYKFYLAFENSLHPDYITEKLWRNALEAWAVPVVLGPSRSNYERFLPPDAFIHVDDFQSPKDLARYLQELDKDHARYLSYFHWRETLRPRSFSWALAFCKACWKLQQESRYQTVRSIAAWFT

[8] = biological target: T4, 4-galactosyl-N-acetylglucosaminide 3-alpha-L-fucosyltransferase FUT6 (Homo sapiens, UniProt P51993); assay: Inhibition of FucT-6 (unknown origin)
T4 sequence (P51993 whole entry): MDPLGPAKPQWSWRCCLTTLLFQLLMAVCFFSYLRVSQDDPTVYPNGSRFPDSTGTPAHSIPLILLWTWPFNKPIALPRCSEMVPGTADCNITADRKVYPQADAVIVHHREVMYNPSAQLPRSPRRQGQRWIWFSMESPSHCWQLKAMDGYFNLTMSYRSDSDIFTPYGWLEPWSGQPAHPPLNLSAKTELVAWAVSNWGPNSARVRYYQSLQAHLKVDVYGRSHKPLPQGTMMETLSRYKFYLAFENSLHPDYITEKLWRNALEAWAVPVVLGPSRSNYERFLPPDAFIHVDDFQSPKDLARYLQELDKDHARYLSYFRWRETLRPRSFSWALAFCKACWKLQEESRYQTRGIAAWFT

[9] = biological target: T5, CMP-N-acetylneuraminate-beta-1,4-galactoside alpha-2,3-sialyltransferase (Homo sapiens, UniProt Q11203); assay: Inhibition of ST3N (unknown origin)
T5 sequence (Q11203 whole entry): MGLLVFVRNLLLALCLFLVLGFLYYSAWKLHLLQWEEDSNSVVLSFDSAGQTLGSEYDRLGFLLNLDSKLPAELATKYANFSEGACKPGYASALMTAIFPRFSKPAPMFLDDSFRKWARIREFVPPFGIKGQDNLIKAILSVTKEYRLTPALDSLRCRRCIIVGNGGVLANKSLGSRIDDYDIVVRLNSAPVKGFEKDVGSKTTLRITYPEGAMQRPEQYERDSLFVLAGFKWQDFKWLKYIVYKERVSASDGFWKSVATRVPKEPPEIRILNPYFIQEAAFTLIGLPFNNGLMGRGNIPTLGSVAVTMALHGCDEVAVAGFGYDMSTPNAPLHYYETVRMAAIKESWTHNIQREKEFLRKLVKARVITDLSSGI

[10] = biological target: T1, Beta-galactoside alpha-2,6-sialyltransferase 1; assay: Inhibition of ST6N (unknown origin)
[11] = Inhibition of human beta-1,4-GalT
[12] = biological target: UDP-N-acetylglucosamine--peptide N-acetylglucosaminyltransferase 110 kDa subunit (Homo sapiens, UniProt O15294); assay: Inhibition of nucleocytoplasmic OGT (unknown origin)
[13] = biological target: T6, Alpha-(1,3)-fucosyltransferase 7 (Homo sapiens, UniProt Q11130); assay: Inhibition of FucT-7 (unknown origin)
T6 sequence (Q11130 whole entry): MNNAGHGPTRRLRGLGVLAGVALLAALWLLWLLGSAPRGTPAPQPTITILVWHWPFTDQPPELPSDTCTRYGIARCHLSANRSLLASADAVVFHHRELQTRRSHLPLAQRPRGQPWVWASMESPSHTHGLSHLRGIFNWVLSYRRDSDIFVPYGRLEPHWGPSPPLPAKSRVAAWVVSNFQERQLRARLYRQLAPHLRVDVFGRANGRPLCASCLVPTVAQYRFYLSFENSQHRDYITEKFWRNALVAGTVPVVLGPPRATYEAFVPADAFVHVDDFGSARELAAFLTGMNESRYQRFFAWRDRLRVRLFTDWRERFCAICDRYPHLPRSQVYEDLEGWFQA

[14] = biological target: Alpha-(1,3)-fucosyltransferase 4 (Homo sapiens, UniProt P22083); assay: Inhibition of FucT-4 (unknown origin)
[15] = biological target: UDP-N-acetylglucosamine--N-acetylmuramyl-(pentapeptide) pyrophosphoryl-undecaprenol N-acetylglucosamine transferase (Escherichia coli (strain K12), UniProt P17443); assay: Inhibition of Escherichia coli MurG
[16] = biological target: T7, UDP-N-acetylglucosamine--N-acetylmuramyl-(pentapeptide) pyrophosphoryl-undecaprenol N-acetylglucosamine transferase (Escherichia coli (strain K12)) (UniProt P17443); assay: Inhibition of Escherichia coli MurG at 2.5 microg/ml
T7 sequence (whole entry): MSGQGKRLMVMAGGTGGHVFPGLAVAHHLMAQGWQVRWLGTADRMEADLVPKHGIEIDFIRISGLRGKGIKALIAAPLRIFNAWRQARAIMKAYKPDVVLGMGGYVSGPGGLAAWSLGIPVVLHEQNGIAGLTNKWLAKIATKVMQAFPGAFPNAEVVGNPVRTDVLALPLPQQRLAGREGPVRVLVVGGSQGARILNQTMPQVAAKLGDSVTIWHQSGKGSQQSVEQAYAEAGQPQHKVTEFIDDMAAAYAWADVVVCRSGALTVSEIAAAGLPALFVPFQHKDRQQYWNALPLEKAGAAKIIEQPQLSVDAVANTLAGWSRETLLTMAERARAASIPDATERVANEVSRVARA

[17] = biological target: T2, CMP-N-acetylneuraminate-beta-galactosamide-alpha-2,3-sialyltransferase 1; assay: Inhibition of ST3Gal 1 (unknown origin) expressed in High Five cells; design: species or system BTI-TN-5B1-4
[18] = biological target: Ceramide glucosyltransferase (Homo sapiens, UniProt Q16739); assay: Inhibition of glucosylceramide synthase (unknown origin)
[19] = biological target: T8, Phospho-N-acetylmuramoyl-pentapeptide-transferase/UDP-N-acetylglucosamine--N-acetylmuramyl-(pentapeptide) pyrophosphoryl-undecaprenol N-acetylglucosamine transf (Escherichia coli K-12, UniProt P0A6W3+P17443); assay: Inhibition of Escherichia coli MraY/MurG; type: protein assay
T8 sequence (P0A6W3 whole entry): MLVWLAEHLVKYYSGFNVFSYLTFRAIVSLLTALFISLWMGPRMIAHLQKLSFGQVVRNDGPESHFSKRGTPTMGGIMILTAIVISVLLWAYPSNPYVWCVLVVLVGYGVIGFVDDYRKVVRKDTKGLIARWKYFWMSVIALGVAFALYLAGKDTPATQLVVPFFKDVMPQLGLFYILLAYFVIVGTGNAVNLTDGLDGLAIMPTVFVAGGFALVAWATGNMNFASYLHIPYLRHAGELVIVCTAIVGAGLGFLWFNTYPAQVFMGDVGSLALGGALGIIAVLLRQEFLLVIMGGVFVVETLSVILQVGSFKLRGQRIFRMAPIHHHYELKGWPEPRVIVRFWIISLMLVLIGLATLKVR
T8 sequence (P17443 whole entry): T7 sequence (whole entry)

[20] = Inhibition of candida albicans beta-(1,3)-glucan synthase assessed as decrease in transfer of radiolabelled glucose from UDP-[3H]-glucose onto acceptor
[21] = test system: Candida albicans; assay: Antifungal activity against Candida albicans; type: functional

Sequence of Ceramide glucosyltransferase (Q16739 whole entry): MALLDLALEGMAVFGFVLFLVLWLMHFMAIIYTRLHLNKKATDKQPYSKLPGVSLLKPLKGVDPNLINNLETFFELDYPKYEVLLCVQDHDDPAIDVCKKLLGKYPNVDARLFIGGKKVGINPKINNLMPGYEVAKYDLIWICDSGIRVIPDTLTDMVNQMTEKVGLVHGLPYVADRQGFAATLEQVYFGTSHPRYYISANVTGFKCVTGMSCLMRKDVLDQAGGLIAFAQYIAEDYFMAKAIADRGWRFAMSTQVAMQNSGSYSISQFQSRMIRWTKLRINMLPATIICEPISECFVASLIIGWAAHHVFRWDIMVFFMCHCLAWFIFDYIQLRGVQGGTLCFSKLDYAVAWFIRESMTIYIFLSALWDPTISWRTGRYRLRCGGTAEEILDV
Sequence of UDP-N-acetylglucosamine--peptide N-acetylglucosaminyltransferase 110 kDa subunit (O15294 whole entry): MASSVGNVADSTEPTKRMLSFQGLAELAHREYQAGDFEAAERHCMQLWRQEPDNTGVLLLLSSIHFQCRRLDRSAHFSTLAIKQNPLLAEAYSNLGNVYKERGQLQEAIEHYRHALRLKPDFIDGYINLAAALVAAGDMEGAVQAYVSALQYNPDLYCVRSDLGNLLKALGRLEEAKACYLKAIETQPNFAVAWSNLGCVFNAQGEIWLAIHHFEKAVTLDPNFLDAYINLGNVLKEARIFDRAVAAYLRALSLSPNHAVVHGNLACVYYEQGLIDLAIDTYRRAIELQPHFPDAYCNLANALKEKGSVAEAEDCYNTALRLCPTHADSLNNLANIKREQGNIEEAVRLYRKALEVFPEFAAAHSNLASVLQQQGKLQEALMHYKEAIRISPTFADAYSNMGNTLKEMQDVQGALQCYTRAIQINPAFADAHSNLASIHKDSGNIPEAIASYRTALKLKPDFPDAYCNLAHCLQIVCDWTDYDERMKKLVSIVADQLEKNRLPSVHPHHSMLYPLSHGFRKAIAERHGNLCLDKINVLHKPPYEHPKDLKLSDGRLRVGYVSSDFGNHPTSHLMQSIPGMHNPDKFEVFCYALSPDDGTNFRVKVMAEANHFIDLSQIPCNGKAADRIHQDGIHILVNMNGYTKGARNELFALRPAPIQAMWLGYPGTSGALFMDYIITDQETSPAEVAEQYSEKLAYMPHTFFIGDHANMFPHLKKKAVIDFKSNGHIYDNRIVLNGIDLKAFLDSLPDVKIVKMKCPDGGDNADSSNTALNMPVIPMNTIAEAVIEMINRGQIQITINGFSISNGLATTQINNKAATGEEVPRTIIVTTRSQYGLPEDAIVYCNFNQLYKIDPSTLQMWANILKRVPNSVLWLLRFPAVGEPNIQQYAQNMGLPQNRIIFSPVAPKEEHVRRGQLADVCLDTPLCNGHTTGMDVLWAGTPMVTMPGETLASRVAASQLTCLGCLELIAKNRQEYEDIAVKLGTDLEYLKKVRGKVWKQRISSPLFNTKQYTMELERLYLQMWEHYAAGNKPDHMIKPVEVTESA
Sequence of Alpha-(1,6)-fucosyltransferase (Q9BYC5 whole entry): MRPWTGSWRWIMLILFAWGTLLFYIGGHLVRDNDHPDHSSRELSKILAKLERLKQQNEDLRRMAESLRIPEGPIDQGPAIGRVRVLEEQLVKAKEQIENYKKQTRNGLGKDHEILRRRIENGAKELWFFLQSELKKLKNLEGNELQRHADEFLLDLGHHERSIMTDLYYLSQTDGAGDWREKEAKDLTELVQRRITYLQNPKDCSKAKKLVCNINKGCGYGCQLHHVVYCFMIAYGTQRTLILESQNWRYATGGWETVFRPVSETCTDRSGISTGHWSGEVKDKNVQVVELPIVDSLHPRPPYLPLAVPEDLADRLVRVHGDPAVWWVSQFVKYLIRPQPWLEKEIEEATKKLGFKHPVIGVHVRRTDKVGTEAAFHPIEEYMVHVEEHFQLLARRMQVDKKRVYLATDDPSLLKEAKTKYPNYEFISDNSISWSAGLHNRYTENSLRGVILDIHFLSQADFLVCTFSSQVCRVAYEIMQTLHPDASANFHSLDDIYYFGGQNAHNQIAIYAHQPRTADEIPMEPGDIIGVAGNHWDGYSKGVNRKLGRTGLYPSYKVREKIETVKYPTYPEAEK
Sequence of Beta-galactoside alpha-2,6-sialyltransferase 1 (Rattus norvegicus, UniProt P13721) (P13721 whole entry): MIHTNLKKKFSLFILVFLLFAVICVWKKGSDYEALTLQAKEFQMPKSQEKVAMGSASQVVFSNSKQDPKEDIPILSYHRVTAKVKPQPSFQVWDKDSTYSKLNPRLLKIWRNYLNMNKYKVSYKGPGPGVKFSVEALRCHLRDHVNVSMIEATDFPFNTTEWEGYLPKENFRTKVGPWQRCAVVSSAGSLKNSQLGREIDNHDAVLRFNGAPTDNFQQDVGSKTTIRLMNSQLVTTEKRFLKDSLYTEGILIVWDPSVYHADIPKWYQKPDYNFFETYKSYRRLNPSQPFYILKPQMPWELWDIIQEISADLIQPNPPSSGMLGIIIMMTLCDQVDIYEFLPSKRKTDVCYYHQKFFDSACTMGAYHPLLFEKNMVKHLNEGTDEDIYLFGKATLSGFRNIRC
Sequence of Alpha-(1,3)-fucosyltransferase 4 (P22083 whole entry): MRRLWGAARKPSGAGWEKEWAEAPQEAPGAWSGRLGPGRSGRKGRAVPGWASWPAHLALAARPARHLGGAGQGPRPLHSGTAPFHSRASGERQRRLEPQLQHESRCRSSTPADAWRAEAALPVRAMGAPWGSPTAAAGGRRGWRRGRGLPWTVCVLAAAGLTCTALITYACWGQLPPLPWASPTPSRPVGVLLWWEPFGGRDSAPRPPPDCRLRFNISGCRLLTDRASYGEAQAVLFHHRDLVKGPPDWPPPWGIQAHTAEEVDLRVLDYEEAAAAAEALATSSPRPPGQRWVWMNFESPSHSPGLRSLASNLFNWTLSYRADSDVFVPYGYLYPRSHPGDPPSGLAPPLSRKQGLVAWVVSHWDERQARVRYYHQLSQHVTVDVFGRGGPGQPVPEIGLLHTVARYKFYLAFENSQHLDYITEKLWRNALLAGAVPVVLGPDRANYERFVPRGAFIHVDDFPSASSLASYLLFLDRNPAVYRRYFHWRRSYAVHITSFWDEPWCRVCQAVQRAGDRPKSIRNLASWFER

## O=c1c(O)c(-c2ccc(O)c(O)c2)oc2ccccc12
[1]
  IC50: 7.5 µM
[2]
  IC50: 1.9 µM

## O=S(=O)(O)c1cc(Nc2nc(Cl)nc(Nc3ccc(Nc4nc(Cl)nc(Nc5cc(S(=O)(=O)O)cc6cc(S(=O)(=O)O)c(/N=N/c7ccccc7S(=O)(=O)O)c(O)c56)n4)cc3)n2)c2c(O)c(/N=N/c3ccccc3S(=O)(=O)O)c(S(=O)(=O)O)cc2c1
[3]
  Ki: 2 µM

## O=C(OC[C@H](Cc1ccccc1)N(Cc1ccccc1)Cc1ccccc1)N1CCC(n2c(=O)[nH]c3ccccc32)CC1
[4]
  IC50: 12 µM

## O=C(Oc1ccccc1)n1c(=O)oc2ccc(Cl)cc21
[5]
  IC50: 27 µM

## C[C@@H]1CC[C@H]2C(C)(C)[C@H](O)[C@H](O)C[C@]2(C)[C@@]12Cc1c(O)cc3c(c1O2)COC3=O
[6]
  IC50: 168 µM
[7]
  IC50: > 200 µM
[8]
  IC50: > 200 µM
[9]
  IC50: 111 µM
[10]
  IC50: 18.5 µM

## CC(=O)N[C@H]1[C@H](O[C@H]2[C@@H](O)[C@@H](CO)O[C@@H](OCc3ccc4ccccc4c3)[C@@H]2O)O[C@H](CO)C[C@@H]1O
[11]
  Ki: 192 µM

## N#Cc1ccc(CSc2nc(-c3cccs3)c3c(c2C(=O)O)CCCC3)cc1
[5]
  IC50: 60 µM
[12]
  IC50: 100 µM

## CC(C)CCCCCCCCCCCCc1cc(OS(=O)(=O)O)cc(OS(=O)(=O)O)c1
[13]
  IC50: 4.8 µM

## C[C@@H]1CC[C@H]2C(C)(C)[C@H](O)CC[C@]2(C)[C@@]12Cc1c(O)cc3c(c1O2)COC3=O
[6]
  IC50: 30.2 µM
[7]
  IC50: > 200 µM
[8]
  IC50: > 200 µM
[9]
  IC50: 50 µM
[10]
  IC50: 8 µM

## C[C@@H](COC(=O)N1CCC(n2c(=O)[nH]c3ccccc32)CC1)N(Cc1ccccc1)Cc1ccccc1
[4]
  IC50: 10 µM

## O=C(O[C@H]1Cc2c(O)cc(O)cc2O[C@H]1c1cc(O)c(O)c(O)c1)c1cc(O)c(O)c(O)c1
[9]
  IC50: 2.7 µM
[13]
  IC50: 0.7 µM
[14]
  IC50: 1.8 µM

## CC1CCN(CN2C(=O)/C(=C\c3ccc(C(C)(C)C)cc3)SC2=S)CC1
[15]
  Ki: 1.3 µM
[16]
  inhibition: 88%

## H-GNWWWW-OH
[17]
  Ki: 1.1 µM

## O=C(O)C1CC(=O)N(CC23CC4CC(CC(C4)C2)C3)/C(=N/c2ccc(Cl)cc2)S1 (stereo not drawn)
[5]
  IC50: 30 µM
[12]
  IC50: 53 µM

## Nc1c(S(=O)(=O)O)cc(Nc2ccc(Nc3nc(Cl)nc(Nc4ccccc4S(=O)(=O)O)n3)c(S(=O)(=O)O)c2)c2c1C(=O)c1ccccc1C2=O [CIBACRON BLUE 3GA]
[3]
  Ki: 11 µM

## CCCCCCCCCCCCCCCc1cc(OS(=O)(=O)O)cc(OS(=O)(=O)O)c1
[13]
  IC50: 4.3 µM

## CCCCCCCCCC(=O)N[C@H](CN1CCCC1)[C@H](O)c1ccccc1
[18]
  IC50: 4 µM

## CN[C@H](CC(C)C)C(=O)N[C@H]1C(=O)N[C@@H](CC(N)=O)C(=O)N[C@H]2C(=O)N[C@H]3C(=O)N[C@H](C(=O)N[C@H](C(=O)O)c4cc(O)cc(O)c4-c4cc3ccc4O)[C@H](O)c3ccc(c(Cl)c3)Oc3cc2cc(c3O[C@@H]2O[C@H](CO)[C@@H](O)[C@H](O)[C@H]2O[C@H]2C[C@](C)(N)[C@H](O)[C@H](C)O2)Oc2ccc(cc2Cl)[C@H]1O [VANCOMYCIN]
[15]
  IC50: 10 µM
[19]
  IC50: 9 µM

## CC(=O)O[C@@H]1C[C@]23C4=CC[C@@]5(C)[C@H](C(=O)O)[C@@](C)([C@H](C)C(C)C)CC[C@]5(C)[C@H]4CC[C@H]2[C@@](C)(COC3O)[C@H]1O[C@@H]1O[C@H](CO)[C@@H](O)[C@H](O)[C@H]1O (stereo partly drawn) [ENFUMAFUNGIN]
[20]
  IC50: 1 µM
[21]
  MIC: 0.05 µg/mL (≈ 0.0705 µM)

## CCCCCCCCO[C@H]1CN(CCCCCCCC)[C@H](CO)[C@@H](O)[C@@H]1O
[18]
  IC50: 164 µM

## CC(C)[C@@H](C)/C=C/[C@@H](C)[C@H]1CCC2=C3[C@@H](O)[C@@H]4O[C@@]45C[C@@H](OC(=O)[C@@H](N)[C@@H](OS(=O)(=O)O)C(C)C)CC[C@]5(C)[C@H]3CC[C@@]21C(=O)O
[20]
  IC50: 3 µM
[21]
  MIC: 0.2 µg/mL (≈ 0.299 µM)
